System: 188146-221-R-J1-PDC complex spheroid viability
Assay: Anticancer human tumor 188146-221-R-J1-PDC patient-derived colon adenocarcinoma cell line growth inhibition [POLQ]
Settings: for IC50: curve of first compound; for viability, T/C: stronger effect = lower value; active = viability on the fitted dose curve at most 10% of control; inactive = the rest
Method in brief: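 Three-cell-type spheroids modelling solid tumor plus stroma served as the readout system; POL inhibitors were tested individually and in combination, concentration ranges set by clinical Cmax where known.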
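Note: spheroids exposed to compounds for seven days.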
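Throughout, for viability, T/C: 100% = DMSO vehicle control viability.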

CC1COCCN1c1cc(C2(O)CC3CCC(C2)O3)c2cnn(-c3ccn[nH]3)c2n1 (configuration not stated) + Nc1ccc(C#CCN(C(=O)Cc2ncc(C(F)(F)F)cc2C(F)(F)F)c2ccc(F)cc2)nn1
0.35 µM: IC50 (second compound 0.1 µM)
active: viability, T/C (second compound 0.1 µM, first compound 10 µM) 8.08% | viability, T/C (second compound 0.316 µM, first compound 10 µM) 7.87% | viability, T/C (second compound 1 µM, first compound 10 µM) 8.87% | viability, T/C (second compound 10 µM, first compound 10 µM) 7.06%
0.209 µM: IC50 (second compound 10 µM)
0.289 µM: IC50 (second compound 3.16 µM)
0.328 µM: IC50 (second compound 0.0316 µM)
inactive: viability, T/C (second compound 0.0316 µM, first compound 0.0316 µM) 88.7% | viability, T/C (second compound 0.0316 µM, first compound 0.1 µM) 76.8% | viability, T/C (second compound 0.0316 µM, first compound 0.316 µM) 49.4% | viability, T/C (second compound 0.0316 µM, first compound 1 µM) 27% | viability, T/C (second compound 0.0316 µM, first compound 3.16 µM) 18.9% | viability, T/C (second compound 0.0316 µM, first compound 10 µM) 8.36% | viability, T/C (second compound 0.1 µM, first compound 0.0316 µM) 109% | viability, T/C (second compound 0.1 µM, first compound 0.1 µM) 77.2% | viability, T/C (second compound 0.1 µM, first compound 0.316 µM) 54.2% | viability, T/C (second compound 0.1 µM, first compound 1 µM) 29.2% | viability, T/C (second compound 0.1 µM, first compound 3.16 µM) 18% | viability, T/C (second compound 0.316 µM, first compound 0.0316 µM) 105% | viability, T/C (second compound 0.316 µM, first compound 0.1 µM) 72.1% | viability, T/C (second compound 0.316 µM, first compound 0.316 µM) 44.2% | viability, T/C (second compound 0.316 µM, first compound 1 µM) 24.3% | viability, T/C (second compound 0.316 µM, first compound 3.16 µM) 17% | viability, T/C (second compound 1 µM, first compound 0.0316 µM) 95.8% | viability, T/C (second compound 1 µM, first compound 0.1 µM) 70.5% | viability, T/C (second compound 1 µM, first compound 0.316 µM) 52% | viability, T/C (second compound 1 µM, first compound 1 µM) 24.3% | viability, T/C (second compound 1 µM, first compound 3.16 µM) 15.6% | viability, T/C (second compound 3.16 µM, first compound 0.0316 µM) 89.9% | viability, T/C (second compound 3.16 µM, first compound 0.1 µM) 80.7% | viability, T/C (second compound 3.16 µM, first compound 0.316 µM) 43.9% | viability, T/C (second compound 3.16 µM, first compound 1 µM) 26% | viability, T/C (second compound 3.16 µM, first compound 3.16 µM) 18.2% | viability, T/C (second compound 3.16 µM, first compound 10 µM) 7.84% | viability, T/C (second compound 10 µM, first compound 0.0316 µM) 87.7% | viability, T/C (second compound 10 µM, first compound 0.1 µM) 66% | viability, T/C (second compound 10 µM, first compound 0.316 µM) 41.4% | viability, T/C (second compound 10 µM, first compound 1 µM) 21.1% | viability, T/C (second compound 10 µM, first compound 3.16 µM) 18.1%
0.249 µM: IC50 (second compound 0.316 µM)
0.288 µM: IC50 (second compound 1 µM)
